Columns and labels:
[1] = molecular target: T1, B1R receptor of the rat (rB1R) (Rattus norvegicus, UniProt P97583); assay: Functional FLIPR Ca2+ assay on the bradykinin 1 receptor, rat (rB1R CHO K1 cells); assay type: cell-based; settings: test substance 10 μM; CHO K1 cells transfected with rat B1R gene; agonist Des-Arg9-bradykinin at EC80; % inhibition compared with maximum achievable inhibition; read-out: B1R antagonism, rat [10 μM] % inhibition
T1 construct: expressed in transfected cells; host or cells: CHO K1 cells (Chinese hamster ovary), stably transfected
T1 sequence (P97583 1-337): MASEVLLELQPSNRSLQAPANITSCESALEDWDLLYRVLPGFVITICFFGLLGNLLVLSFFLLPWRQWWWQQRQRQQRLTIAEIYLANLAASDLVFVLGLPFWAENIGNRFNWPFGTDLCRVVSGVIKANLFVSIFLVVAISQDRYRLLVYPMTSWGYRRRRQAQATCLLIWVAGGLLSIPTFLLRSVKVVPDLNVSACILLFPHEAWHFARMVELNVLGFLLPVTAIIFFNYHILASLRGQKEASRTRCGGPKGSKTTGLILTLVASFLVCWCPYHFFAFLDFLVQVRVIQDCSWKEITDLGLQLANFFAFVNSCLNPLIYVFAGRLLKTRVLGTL
How it was run: (§1)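 Stably transfected CHO K1 cells expressing human or rat B1R, Fluo-4-loaded, Ca2+ influx read by FLIPR (peak fluorescence). Compounds (10 μM for % activation) preincubated 10-20 min, then EC80 agonist added: Lys-Des-Arg9-bradykinin for human, Des-Arg9-bradykinin for rat; % inhibition versus maximal inhibition, IC50 from concentration series.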

[2] = molecular target: T2, human B1R receptor (hB1R) (Homo sapiens, UniProt P46663); assay: Functional FLIPR Ca2+ assay on the bradykinin 1 receptor, human (hB1R CHO K1 cells); assay type: cell-based; settings: test substance 10 μM; CHO K1 cells transfected with human B1R gene; agonist Lys-Des-Arg9-bradykinin at EC80; % inhibition compared with maximum achievable inhibition; read-out: B1R antagonism, human (10 μM] % inhibition
T2 construct: expressed in transfected cells; host or cells: CHO K1 cells (Chinese hamster ovary), stably transfected
T2 sequence (P46663 1-353): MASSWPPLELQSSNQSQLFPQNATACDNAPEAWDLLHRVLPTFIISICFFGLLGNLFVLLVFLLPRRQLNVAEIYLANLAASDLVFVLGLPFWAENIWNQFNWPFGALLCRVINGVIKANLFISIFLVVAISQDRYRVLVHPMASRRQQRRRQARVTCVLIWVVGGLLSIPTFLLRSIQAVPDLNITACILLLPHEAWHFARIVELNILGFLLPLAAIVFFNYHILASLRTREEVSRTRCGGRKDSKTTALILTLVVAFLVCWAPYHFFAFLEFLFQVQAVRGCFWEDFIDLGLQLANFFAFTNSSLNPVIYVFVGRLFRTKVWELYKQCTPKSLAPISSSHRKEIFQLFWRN
How it was run: as §1

| inhibition at 10 µM [1] [%] | inhibition at 10 µM [2] [%] | SMILES |
| --- | --- | --- |
| 103 | 100 | COc1cc(C)c(S(=O)(=O)N(C)CCOCC(=O)N2CCc3sc(CN4CCN(C)CC4)cc3C2)c(C)c1 [Example 51, 4-methoxy-N,2,6-trimethyl-N-(2-(2-(2-((4-methylpiperazin-1-yl)methyl)-6,7-dihydrothieno[3,2-c]pyridin-5(4H)-yl)-2-oxoethoxy)ethyl)benzenesulfonamide] |
| 95 | 76 | COc1cc(C)c(S(=O)(=O)N2CCCCC2CCC(=O)N2CCc3nc(-c4ccncc4)sc3C2)c(C)c1 (centres unmarked) [Example 52, 3-(1-(4-methoxy-2,6-dimethylphenylsulfonyl)piperidin-2-yl)-1-(2-(pyridin-4-yl)-6,7-dihydrothiazolo[5,4-c]pyridin-5(4H)-yl)propan-1-one] |
| 98 | 96 | COc1cc(C)c(S(=O)(=O)N2CCCCC2CCCC(=O)N2CCc3nc(-c4ccncc4)sc3C2)c(C)c1 (centres unmarked) [Example 53, 4-(1-(4-methoxy-2,6-dimethylphenylsulfonyl)piperidin-2-yl)-1-(2-(pyridin-4-yl)-6,7-dihydrothiazolo[5,4-c]pyridin-5(4H)-yl)butan-1-one] |
| 101 | 16 | O=C(CC1CCCCN1S(=O)(=O)c1cccc(C(F)(F)F)c1)N1CCc2sccc2C1c1ccncc1 (centres unmarked) [Example 54, 1-(4-pyridin-4-yl-4,5,6,7-tetrahydro-thieno[3,2-c]pyridin-5-yl)-2-[1-[[3-(trifluoromethyl)phenyl]sulfonyl]-piperidin-2-yl]-ethanone] |
| 103 | 88 | Cc1cc(S(=O)(=O)N2CCCCC2CCC(=O)N2CCc3sccc3C2c2ccncc2)c(C)cc1Cl (centres unmarked) [Example 55, 3-[1-[(4-chloro-2,5-dimethyl-phenyl)sulfonyl]-piperidin-2-yl]-1-(4-pyridin-4-yl-4,5,6,7-tetrahydro-thieno[3,2-c]pyridin-5-yl)-propan-1-one] |
| 105 | 100 | Cc1cccc(Cl)c1S(=O)(=O)N(CCOCC(=O)N1CCc2sc(CN3CCC3)cc2C1)C1CC1 [Example 56, N-[2-[2-[2-(Azetidin-1-yl-methyl)-4,5,6,7-tetrahydro-thieno[3,2-c]pyridin-5-yl]-2-oxo-ethoxy]-ethyl]-2-chloro-N-cyclopropyl-6-methyl-benzenesulfonic acid amide] |
| 99 | 100 | Cc1cccc(Cl)c1S(=O)(=O)N(CCOCC(=O)N1CCc2sc(CN3CC(F)(F)C3)cc2C1)C1CC1 [Example 57, 2-Chloro-N-cyclopropyl-N-[2-[2-[2-[(3,3-difluoro-azetidin-1-yl)-methyl]-4,5,6,7-tetrahydro-thieno[3,2-c]pyridin-5-yl]-2-oxo-ethoxy]-ethyl]-6-methyl-benzenesulfonic acid amide] |
| 103 | 100 | COc1cc(C)c(S(=O)(=O)N2CCCC[C@H]2COCC(=O)N2CCc3nc(CN4CCCCC4)sc3C2)c(C)c1 [Example 58, 2-[[(2S)-1-[(4-Methoxy-2,6-dimethyl-phenyl)sulfonyl]-piperidin-2-yl]-methoxy]-1-[2-(piperidin-1-yl-methyl)-4,5,6,7-tetrahydro-thiazolo[5,4-c]pyridin-5-yl]-ethanone] |
| 104 | 100 | Cc1cccc(Cl)c1S(=O)(=O)N1CCCC[C@H]1COCC(=O)N1CCc2sc(CN3CCCCC3)cc2C1 [Example 59, 2-[[(2S)-1-[(2-chloro-6-methyl-phenyl)sulfonyl]-piperidin-2-yl]-methoxy]-1-[2-(piperidin-1-yl-methyl)-4,5,6,7-tetrahydro-thieno[3,2-c]pyridin-5-yl]-ethanone] |
| 106 | 100 | Cc1cccc(Cl)c1S(=O)(=O)N(CCOCC(=O)N1CCc2sc(CN3CCCCC3)cc2C1)C1CC1 [Example 60, 2-chloro-N-cyclopropyl-6-methyl-N-[2-[2-oxo-2-[2-(piperidin-1-yl-methyl)-4,5,6,7-tetrahydro-thieno[3,2-c]pyridin-5-yl]-ethoxy]-ethyl]-benzenesulfonic acid amide] |
